Assay results reported in patent publication US7332596B1 (priority 1999, dated 2008).
Where no end group is shown, it is not given here.

Assays:
[1] = Freshly isolated potato intercellular wash fluid (pIWF); conditions: Russet Burbank potato, up to 5 minutes

Molecule: VKVGLATKAERASRQQRKQRKNRQKTLRGTRKVKGAKAKK
- cleaved bond [1]: A-T and L-R and R-G and R-K

Molecule: MKIRASIRRISGKSRPIRRRKRVMIISSNPRHKQKQG [BL36]
- IC50 (Phytophthora infestans): 3400 nM
- IC50 (Fusarium culmorum): 2300 nM

Molecule: VKVGLATKAERASRQQRKQRKNRQKTLMGTAKVKGAKAKK
- cleaved bond [1]: A-T and L-M and M-G and A-K

Molecule: VKVGLATKAERASRQQRKQRKNRQKTLMGTAQVKGAKAKK
- cleaved bond [1]: A-T and L-M and M-G and A-Q

Molecule: VKVGLATKAERASRQQRKQRKNRQKTLRGTAKVKGAKAKK
- cleaved bond [1]: A-T and L-R and R-G and A-K

Molecule: MAVPKKRTSISKKRIRKKIWKRKGYWTSLKAFSLGKSLSTGNSKSFFVQQNK [BL32]
- IC50 (Phytophthora infestans): 6600 nM
- IC50 (Fusarium culmorum): 1600 nM

Molecule: VKVGLATKAERASRQQRKQRKNRQKTLRGTAKVKGAKAKK [Synthetic FCWP1]
- IC50 P. infestans High salt (Phytophthora infestans): 20 µg/mL
- IC50 P. infestans Low salt (Phytophthora infestans): 10 µg/mL
- IC50 S. nodorum High salt (S. nodorum): >170 µg/mL
- IC50 S. nodorum Low salt (S. nodorum): 22 µg/mL
- IC50 F. culmorum High salt (Fusarium culmorum): 85 µg/mL
- IC50 F. culmorum Low salt (Fusarium culmorum): 6 µg/mL

Molecule: VKVGLATKAERASRQQRKQRKNRQKTRRGTRKVKGAKAKK
- cleaved bond [1]: A-T and T-R and G-T and R-K

Molecule: MNSHRLPGKGRRMGPIMGHTMHYRRMIITLQSSYSIPPLRKKRT [SL23]
- IC50 (Phytophthora infestans): 7700 nM
- IC50 (Fusarium culmorum): 2500 nM

Molecule: VKVGLATKAERASRQQRKQRKNRQKTLRGTAQVKGAKAKK
- cleaved bond [1]: A-T and L-R and R-G and A-Q

Molecule: CSCC[C@H](N)C(=O)N[C@@H](CCCNC(=N)N)C(=O)N[C@@H](C)C(=O)N[C@@H](CCCCN)C(=O)N[C@@H](Cc1c[nH]c2ccccc12)C(=O)N[C@@H](CCCNC(=N)N)C(=O)N[C@@H](CCCCN)C(=O)N[C@@H](CCCCN)C(=O)N[C@@H](CCCNC(=N)N)C(=O)N[C@H](C(=O)N[C@@H](CCCNC(=N)N)C(=O)N[C@@H](CCCNC(=N)N)C(=O)N[C@@H](CC(C)C)C(=O)N[C@@H](CCCCN)C(=O)N[C@@H](CCCNC(=N)N)C(=O)N[C@@H](CCCCN)C(=O)N[C@@H](CCCNC(=N)N)C(=O)N[C@@H](CCCNC(=N)N)C(=O)N[C@@H](CCCCN)C(=O)N[C@H](C(=O)N[C@@H](CCCNC(=N)N)C(=O)N[C@@H](C)C(=O)N[C@@H](CCCNC(=N)N)C(=O)N[C@@H](CO)C(=O)N[C@@H](CCCCN)C(=O)O)C(C)C)[C@@H](C)O [YL41]
- IC50 (Phytophthora infestans): 4500 nM
- IC50 (Fusarium culmorum): 1200 nM

Molecule: VKVGLATKAERASRQQRKQRKNRQKTRRGTAKVKGAKAKK
- cleaved bond [1]: R-R and G-T and A-K and A-T
